From ChEMBL document CHEMBL4888484, “Replenishing the malaria drug discovery pipeline: Screening and hit evaluation of the MMV Hit Generation Library 1 (HGL1) against asexual blood stage Plasmodium falciparum ,using a nano luciferase reporter read-out” (2022)

Legend:
Plasmodium falciparum [1] = test: Re-testing in dose-response curve in 3D7 pLDH assay, at 72h; assay type: functional, organism-based; design: timepoint 72 hour; conditions: 3D7, Erythrocyte
[2] = Re-testing in dose-response curve in HepG2 cytotoxicity assay, at 72h; assay type: toxicity, cell-based; design: timepoint 72 hour; conditions: human, HepG2 cells
[3] = Hit confirmation in dose-response curve in HepG2 cytotoxicity assay, at 72h; assay type: toxicity, cell-based; design: timepoint 72 hour; conditions: human, HepG2 cells
Plasmodium falciparum [4] = test: Hit confirmation in dose-response curve in NF54 pLDH assay, at 72h; assay type: functional, organism-based; design: timepoint 72 hour; conditions: NF54, Erythrocyte
Plasmodium falciparum [5] = test: Hit confirmation in dose-response curve in Dd2 pLDH assay, at 72h; assay type: functional, organism-based; design: timepoint 72 hour; conditions: Dd2, Erythrocyte
Plasmodium falciparum [6] = test: Hit confirmation in dose-response curve in NF54 nanoGlo assay, at 72h; assay type: functional, organism-based, Erythrocyte; design: timepoint 72 hour; conditions: Plasmodium falciparum, NF54, Erythrocyte, 72 h
Plasmodium falciparum [7] = test: Hit confirmation in dose-response curve in NF54 nanoGlo assay, at 12h; assay type: functional, organism-based, Erythrocyte; design: timepoint 12 hour; conditions: Plasmodium falciparum, NF54, Erythrocyte, 12 h

With `CC(C)N(CC(=O)Nc1nccs1)Cc1ccccn1` the IC50 (Plasmodium falciparum [1]) was 9790 nM, the IC50 at 72 h [2] was > 24800 nM and the IC50 at 72 h [3] was > 10000 nM. It also gave an IC50 (Plasmodium falciparum [4]) of 1700 nM, an IC50 (Plasmodium falciparum [5]) of 891 nM and an IC50 (Plasmodium falciparum [6]) of 692 nM. For the same compound, the IC50 (Plasmodium falciparum [7]) was > 10000 nM.

For `Cc1cnccc1NCCNCc1cccc(O)c1Cl`, the IC50 (Plasmodium falciparum [1]) was 943 nM, the IC50 at 72 h [2] was > 25000 nM and the IC50 at 72 h [3] was > 10000 nM. The IC50 (Plasmodium falciparum [4]) was 1480 nM, the IC50 (Plasmodium falciparum [5]) was 1230 nM and the IC50 (Plasmodium falciparum [6]) was 1120 nM. The IC50 (Plasmodium falciparum [7]) was > 10000 nM.

For `Cc1noc(C)c1CN1C[C@@H]2Oc3cc(F)ccc3C(=O)N(C)[C@@H]2C1`, the IC50 (Plasmodium falciparum [1]) was 488 nM, the IC50 at 72 h [2] was > 25000 nM and the IC50 at 72 h [3] was > 10000 nM. It also gave an IC50 (Plasmodium falciparum [4]) of 1020 nM, an IC50 (Plasmodium falciparum [5]) of 1000 nM and an IC50 (Plasmodium falciparum [6]) of 724 nM. It also gave an IC50 (Plasmodium falciparum [7]) of 1580 nM.
